Measured values as given in patent US9821173B2, “Anti-cancer agents and methods of use” (Case Western Reserve University, priority 2013, dated 2017).
Where “and” joins values, the source holds several entries; their conditions need not be identical. Equal entries are not always repeated. Entries after “also recorded” stand apart in the source; their conditions may differ.

Key:
[1] = test system: γH2AX foci in HeLa cells; conditions: 2 Gy IR, compound 4 7 μM; for number of γH2AX foci 30 minutes post IR exposure: compound 3 4 μM
Method: HeLa cells were plated at a density of 40,000 cells/ml in 24-well glass bottom plate for 24 hr. After this time, cells were treated with Au(I)indole compounds at desired concentration for an additional 24 hr. The cells were irradiated at 2 Gys. Cells were fixed with 4% paraformaldehyde for 15 min at 37° C. at time points corresponding to 0.5, 1, 2, and 4 hrs. Cells were washed with 1×PBS and permeabilized in 0.2% Triton X-100 for 15 min at 37° C. […] Mouse monoclonal anti-phospho-histone H2AX antibody (Millipore) was applied (1:500 dilution) to each well for one hour. After washing several times with blocking buffer, a 1:500 dilution of goat anti-mouse secondary antibody conjugated with Alexa 647 (Invitrogen) was added for 1 hr. The wells were then washed several times, and the number of γH2AX foci per nuclei was measured using an iCyte laser scanning cytometer with a red long pass filter (650 nm). To collect accurate data, a threshold was set to minimize noise produced by unrelated events using iNovator software (version 3.4.2.52). Each well was scanned using a 40× magnification with 0.25 μm× step and a field size of 250×186 μm (1000×768 pixels). Data were plotted as the percentage of cells as a function of foci number. The resulting histogram was fit to the equation for a Gaussian distribution (Equation 2). Y=1/(2πσ^2)^1/2e^−[(χ−m)2/2σ2] (2)
where Y is the percentage of cells, μ is the mean, and σ is the variance used to define the width of the mean.

[2] = test system: MCF-7; assay: Cell proliferation assay (cell-titer blue); assay type: cell-based; conditions: cell viability, up to 48 hours
Method: (§1) HeLa, MCF-7, HCT-116, and CEM-C7 were obtained from the American Type Culture Collection (Manassas, Va., USA). All adherent cell lines were maintained in Dulbecco's modified Eagle's medium (Mediatech) with 100 U/ml penicillin (Invitrogen), 100 μg/ml streptomycin (Invitrogen), 0.25 μg/ml amphotericin B (Invitrogen), and 10% fetal bovine serum (USA Scientific) and incubated at 37° C. with 5% CO2. CEM cells were maintained in RPMI-1640 media supplemented with 100 U/ml penicillin, 100 μg/ml streptomycin, 0.25 μg/ml amphotericin B, and 10% fetal bovine serum and incubated at 37° C. with […].
(§2) Cells were plated at a density of 7,000-13,000/well in 200 μl of media overnight in a 96-well plate. Each (phosphine)gold(I)-indole was added to wells in a dose-dependent manner (0.01-100 μM). Cells were treated with compounds for variable time periods (8-48 hours). With adherent cell lines, medium was removed from the wells and then 100 μl of fresh medium was added into each well followed by the addition of 20 μl of cell titer-blue reagent (Promega). Cells were incubated with reagent for 1-4 hrs and the optical density of samples was read at 560 nm using a microplate reader. The background absorbance of dye with media was subtracted from each sample. Cell viability was then normalized against cells treated with DMSO. IC50 values were obtained using a fit of the data to Equation 1: Y=100%/[1+(IC50/Inhibitor)] (1)
(§3) where y is the fraction of viable cells, IC50 is the concentration of inhibitor that inhibits 50% cell growth, and Inhibitor is the concentration of compound tested.
(§4) The cellular effects of these (phosphine)gold(I) indoles were tested against several cancer cell lines including HeLa (cervical cancer), MCF-7 (breast cancer), HCT-116 (colon cancer), and CEM-C7 (leukemia). The dose-dependency of each modified indole on cell viability was assessed using a cell-titer blue assay as previously described. In these experiments, cells were exposed to variable concentrations of each (phosphine)gold(I) indole (0.01-100 μM) for up to 48 hours and then assessed for viability.

[3] = test system: HCT-116; assay: Cell proliferation assay (cell-titer blue); assay type: cell-based; conditions: cell viability, up to 48 hours, read-out: IC50 HCT116
Method: as §1, §2, §3, §4

[4] = test system: HeLa; assay: Cell proliferation assay (cell-titer blue); assay type: cell-based; conditions: cell viability, cell-titer blue, up to 48 hours
Method: as §1, §2, §3, §4

[5] = test system: HeLa cells; assay: Fluorescence microscopy, propidium iodide uptake and annexin V staining; assay type: cell-based; conditions: 50 μM; for annexin V staining: 12 hours; for PI staining / uptake: 24 hours
Method: Cells were plated at 75,000-125,000/ml for 24 hours. […] Alexa fluro 488 Annexin V and Propidium Iodide were added to each well and images were taken on Leica CTR 6500 microscope using green (480/40 nm) and red (560/40 nm) excitation band pass filters.

[6] = test system: HeLa cells; assay: Cell cycle analyses (PI staining, flow cytometry); assay type: cell-based; conditions: for G1 (%) / G2/M (%) / S-Phase (%): 50 μM, 24 hours post-treatment
Method: Cells were plated at a density of 200,000/ml. Au(I)-Indole analogs were then added in a dose-dependent manner for time periods varying from 1 to 3 days. Cells were treated with 0.25% trypsin and harvested by centrifugation. The supernatant was removed and then washed with PBS. After aspiration of PBS, 500 μl of 70% ethanol was added and cells were incubated on ice for 15 minutes followed by centrifugation and the removal of ethanol. One ml of PI staining solution [(10 ml of 0.1 Triton X-100/PBS, 0.4 ml of 500 μg/ml of PI, and 2 mg/ml of DNase-free RNase)] was added to the cell suspension, placed on ice for 30 minutes, and then analyzed using a Beckman Coulter XL flow cytometer with a red filter.
We next analyzed the effects of compounds 3 and 4 on cell-cycle progression using PI staining to measure cellular DNA content. HeLa cells were treated with DMSO.

[7] = biological target: T1, GSK3α (Homo sapiens, UniProt P49840); assay: Kinase inhibition screening (Luceome); assay type: biochemical; conditions: 10 μM
T1 construct: purchased Luceome Biotechnologies (Tucson, Ariz.)
Excerpt: (§5) It is well established that dysfunctional and unregulated kinase activity plays significant roles in cancer initiation and progression. […] Inspection of the data provides several interesting observations. […] These inhibitory effects at this concentration are consistent with their measured IC50 values that are also in the μM range (Table 1). In addition, several kinases display overlapping inhibitory responses to both gold(I) compounds. Many of these are of particular interest since they are involved in cancer initiation and/or progression. For example, the Aurora kinase family members, Aurora A and Aurora B, as well as the MARK2 and MARK3 kinases function during mitosis to regulate cell division. These kinases are important therapeutic targets as their activities are often deregulated in many types of cancers. Other kinases such as RPS6KA3 and MLK3 are involved in the MAP kinase and JNK pathways which are also important in cancer progression.

[8] = biological target: T2, MARK2 (Homo sapiens, UniProt Q7KZI7); assay: Kinase inhibition screening (Luceome); assay type: biochemical; conditions: 10 μM
T2 construct: purchased Luceome Biotechnologies (Tucson, Ariz.)
Excerpt: as §5

[9] = biological target: T3, IGF1R (Homo sapiens, UniProt P08069); assay: Kinase inhibition screening (Luceome); assay type: biochemical; conditions: 10 μM
T3 construct: purchased Luceome Biotechnologies (Tucson, Ariz.)
Excerpt: as §5

[10] = biological target: T4, FLT3 (Homo sapiens, UniProt P36888); assay: Kinase inhibition screening (Luceome); assay type: biochemical; conditions: 10 μM
T4 construct: purchased Luceome Biotechnologies (Tucson, Ariz.)
Excerpt: as §5

[11] = biological target: T5, LYN (Homo sapiens, UniProt P07948); assay: Kinase inhibition screening (Luceome); assay type: biochemical; conditions: 10 μM
T5 construct: purchased Luceome Biotechnologies (Tucson, Ariz.)
Excerpt: as §5

[12] = biological target: T6, FYN (Homo sapiens, UniProt P06241); assay: Kinase inhibition screening (Luceome); assay type: biochemical; conditions: 10 μM
T6 construct: purchased Luceome Biotechnologies (Tucson, Ariz.)
Excerpt: as §5

[13] = test system: HeLa cells; assay: Measurements of apoptosis, dual parameter FACS with PI and annexin V; assay type: cell-based; conditions: 50 μM
Method: Cells were plated at 200,000/ml, Au(I)-Indole analogs were added in a dose-dependent fashion for 12-24 hr. Cells were trypsinized and then washed with cold PBS. After discarding the supernatant, a 100 μL solution containing 1× annexin-binding buffer, 5 μl of alexa fluor 488 Annexin V and 1 μg/ml of PI solution was added to each sample. The cells were incubated at room temperature for 15 min. After this incubation period, an additional 400 μl of 1× annexin-binding buffer was added. Cells were analyzed using a band pass filters with wavelengths of 525/40 nm and 620/30 nm with a Beckman Coulter XL flow cytometer.

[14] = Reactivity toward L-cysteine (DTNB); conditions: 400 μM L-cysteine with equivalent concentration of compound

T1 sequence (P49840 whole entry): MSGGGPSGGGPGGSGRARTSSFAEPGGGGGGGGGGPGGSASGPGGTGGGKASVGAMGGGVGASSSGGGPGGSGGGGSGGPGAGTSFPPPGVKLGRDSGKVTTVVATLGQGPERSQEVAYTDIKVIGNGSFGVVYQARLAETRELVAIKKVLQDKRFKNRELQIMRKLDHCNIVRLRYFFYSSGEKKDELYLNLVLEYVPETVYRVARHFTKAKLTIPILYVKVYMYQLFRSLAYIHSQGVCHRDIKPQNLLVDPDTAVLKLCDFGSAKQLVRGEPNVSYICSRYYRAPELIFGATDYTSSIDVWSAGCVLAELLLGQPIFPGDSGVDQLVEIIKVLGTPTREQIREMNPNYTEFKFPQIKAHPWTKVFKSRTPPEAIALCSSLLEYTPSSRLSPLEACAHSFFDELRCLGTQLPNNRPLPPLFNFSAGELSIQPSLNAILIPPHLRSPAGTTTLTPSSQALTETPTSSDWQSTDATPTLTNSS
T3 sequence (P08069 31-1367): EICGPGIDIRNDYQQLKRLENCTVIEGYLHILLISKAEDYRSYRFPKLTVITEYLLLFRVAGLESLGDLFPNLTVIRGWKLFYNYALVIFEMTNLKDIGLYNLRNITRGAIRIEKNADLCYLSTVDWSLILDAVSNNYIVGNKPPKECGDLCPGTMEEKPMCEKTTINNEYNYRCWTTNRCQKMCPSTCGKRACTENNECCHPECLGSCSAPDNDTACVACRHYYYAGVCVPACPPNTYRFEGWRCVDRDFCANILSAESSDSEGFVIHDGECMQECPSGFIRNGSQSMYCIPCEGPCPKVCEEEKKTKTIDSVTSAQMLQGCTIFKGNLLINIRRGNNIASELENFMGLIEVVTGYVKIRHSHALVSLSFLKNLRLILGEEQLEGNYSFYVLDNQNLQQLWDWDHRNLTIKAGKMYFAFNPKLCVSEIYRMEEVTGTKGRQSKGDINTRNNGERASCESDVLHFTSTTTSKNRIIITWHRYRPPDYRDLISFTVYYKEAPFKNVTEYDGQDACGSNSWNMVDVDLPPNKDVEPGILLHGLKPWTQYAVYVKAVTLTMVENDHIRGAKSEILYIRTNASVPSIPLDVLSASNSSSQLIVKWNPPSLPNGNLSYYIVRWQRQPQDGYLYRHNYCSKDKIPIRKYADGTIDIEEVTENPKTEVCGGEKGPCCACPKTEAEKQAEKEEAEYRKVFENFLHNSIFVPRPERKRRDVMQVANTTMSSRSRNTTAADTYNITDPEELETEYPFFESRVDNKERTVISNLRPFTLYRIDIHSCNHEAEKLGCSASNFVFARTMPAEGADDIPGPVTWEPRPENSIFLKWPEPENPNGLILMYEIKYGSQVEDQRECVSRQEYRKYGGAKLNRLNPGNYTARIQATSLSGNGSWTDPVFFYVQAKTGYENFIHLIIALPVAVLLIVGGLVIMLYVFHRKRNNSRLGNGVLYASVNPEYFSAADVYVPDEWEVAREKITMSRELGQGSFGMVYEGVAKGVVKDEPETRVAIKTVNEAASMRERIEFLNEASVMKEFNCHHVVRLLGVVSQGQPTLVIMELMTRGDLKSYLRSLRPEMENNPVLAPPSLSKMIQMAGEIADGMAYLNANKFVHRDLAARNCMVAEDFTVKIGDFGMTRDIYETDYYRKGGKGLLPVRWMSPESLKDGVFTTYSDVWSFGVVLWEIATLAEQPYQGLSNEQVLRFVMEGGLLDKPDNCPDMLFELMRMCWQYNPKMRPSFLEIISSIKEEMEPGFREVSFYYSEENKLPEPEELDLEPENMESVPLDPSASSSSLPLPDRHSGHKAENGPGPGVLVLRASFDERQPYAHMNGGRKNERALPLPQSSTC
T4 sequence (P36888 27-993): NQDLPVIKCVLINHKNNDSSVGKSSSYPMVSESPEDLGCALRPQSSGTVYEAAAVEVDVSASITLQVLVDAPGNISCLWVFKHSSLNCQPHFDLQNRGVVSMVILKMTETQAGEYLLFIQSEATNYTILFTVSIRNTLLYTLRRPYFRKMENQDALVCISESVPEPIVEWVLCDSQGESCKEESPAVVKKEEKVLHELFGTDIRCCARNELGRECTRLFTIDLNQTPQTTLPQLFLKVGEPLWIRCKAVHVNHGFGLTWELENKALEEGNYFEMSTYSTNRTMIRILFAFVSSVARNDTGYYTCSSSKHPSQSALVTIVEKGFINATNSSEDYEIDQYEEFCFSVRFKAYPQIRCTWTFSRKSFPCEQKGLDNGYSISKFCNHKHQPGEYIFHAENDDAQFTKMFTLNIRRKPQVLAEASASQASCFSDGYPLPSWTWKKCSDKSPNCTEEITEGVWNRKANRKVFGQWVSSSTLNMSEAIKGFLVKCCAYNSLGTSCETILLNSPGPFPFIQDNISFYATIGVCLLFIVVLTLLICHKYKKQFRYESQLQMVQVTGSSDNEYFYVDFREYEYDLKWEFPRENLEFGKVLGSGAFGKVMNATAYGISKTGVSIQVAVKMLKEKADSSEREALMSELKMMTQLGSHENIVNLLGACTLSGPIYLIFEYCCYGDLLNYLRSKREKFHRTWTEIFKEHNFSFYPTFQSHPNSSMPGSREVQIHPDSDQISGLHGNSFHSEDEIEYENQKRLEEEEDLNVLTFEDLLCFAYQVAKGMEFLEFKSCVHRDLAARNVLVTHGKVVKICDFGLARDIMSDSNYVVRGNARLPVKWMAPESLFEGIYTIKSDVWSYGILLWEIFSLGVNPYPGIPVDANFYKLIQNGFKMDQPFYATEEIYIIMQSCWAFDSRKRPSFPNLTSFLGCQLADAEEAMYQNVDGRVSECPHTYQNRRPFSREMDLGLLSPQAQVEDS
T6 sequence (P06241 whole entry): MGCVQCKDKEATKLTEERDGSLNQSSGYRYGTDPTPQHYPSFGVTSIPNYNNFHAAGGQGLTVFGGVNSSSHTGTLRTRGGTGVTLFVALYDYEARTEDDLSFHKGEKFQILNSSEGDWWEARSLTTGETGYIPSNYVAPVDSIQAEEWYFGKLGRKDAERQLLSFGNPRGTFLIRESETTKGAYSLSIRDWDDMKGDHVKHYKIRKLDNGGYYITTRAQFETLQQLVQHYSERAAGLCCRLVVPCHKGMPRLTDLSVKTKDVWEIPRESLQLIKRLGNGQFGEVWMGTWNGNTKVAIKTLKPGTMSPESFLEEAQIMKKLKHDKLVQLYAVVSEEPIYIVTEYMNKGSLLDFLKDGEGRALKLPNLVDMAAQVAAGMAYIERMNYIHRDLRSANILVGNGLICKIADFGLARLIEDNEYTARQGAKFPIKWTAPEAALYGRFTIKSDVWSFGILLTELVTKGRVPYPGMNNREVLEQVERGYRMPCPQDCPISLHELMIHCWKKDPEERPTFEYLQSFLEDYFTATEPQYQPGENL
T2 sequence (Q7KZI7 whole entry): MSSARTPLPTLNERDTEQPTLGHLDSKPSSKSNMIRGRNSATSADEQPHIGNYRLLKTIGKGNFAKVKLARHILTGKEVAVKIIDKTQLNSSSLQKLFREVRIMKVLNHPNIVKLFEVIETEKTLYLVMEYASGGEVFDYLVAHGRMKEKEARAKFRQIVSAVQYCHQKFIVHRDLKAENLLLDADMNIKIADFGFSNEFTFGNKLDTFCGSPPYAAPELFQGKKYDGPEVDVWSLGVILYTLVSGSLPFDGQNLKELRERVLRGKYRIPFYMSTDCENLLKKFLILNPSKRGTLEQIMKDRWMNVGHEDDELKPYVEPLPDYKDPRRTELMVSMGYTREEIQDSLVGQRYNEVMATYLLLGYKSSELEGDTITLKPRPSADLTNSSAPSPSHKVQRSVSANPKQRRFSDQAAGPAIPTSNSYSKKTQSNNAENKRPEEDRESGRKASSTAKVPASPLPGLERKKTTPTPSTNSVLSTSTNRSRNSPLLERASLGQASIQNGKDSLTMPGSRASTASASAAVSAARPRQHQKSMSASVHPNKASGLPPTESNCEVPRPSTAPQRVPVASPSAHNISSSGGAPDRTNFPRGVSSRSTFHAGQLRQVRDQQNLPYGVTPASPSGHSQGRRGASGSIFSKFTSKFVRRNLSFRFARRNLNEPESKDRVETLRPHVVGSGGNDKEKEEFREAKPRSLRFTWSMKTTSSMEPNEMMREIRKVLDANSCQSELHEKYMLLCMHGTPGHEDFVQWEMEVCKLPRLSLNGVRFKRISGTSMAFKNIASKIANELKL
T5 sequence (P07948 whole entry): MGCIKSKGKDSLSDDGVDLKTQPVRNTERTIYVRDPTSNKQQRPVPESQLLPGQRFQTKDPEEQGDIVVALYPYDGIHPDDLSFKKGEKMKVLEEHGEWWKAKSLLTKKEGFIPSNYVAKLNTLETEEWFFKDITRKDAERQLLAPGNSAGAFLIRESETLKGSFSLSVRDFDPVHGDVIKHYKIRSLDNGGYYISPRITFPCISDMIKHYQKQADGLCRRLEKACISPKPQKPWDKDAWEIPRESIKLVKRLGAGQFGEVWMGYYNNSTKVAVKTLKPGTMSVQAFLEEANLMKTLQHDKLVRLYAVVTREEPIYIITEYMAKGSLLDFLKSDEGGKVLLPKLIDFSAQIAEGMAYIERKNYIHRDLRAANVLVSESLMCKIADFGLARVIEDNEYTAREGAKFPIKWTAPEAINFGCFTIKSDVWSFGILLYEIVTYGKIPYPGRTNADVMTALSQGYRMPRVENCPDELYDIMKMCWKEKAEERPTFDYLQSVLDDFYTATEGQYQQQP

| Structure (SMILES) | number of γH2AX foci 30 minutes post IR exposure [1] | IC50 [2] [µM] | IC50 [3] [µM] | IC50 [4] [µM] | annexin V staining [5] | PI staining / uptake [5] | G1 (%) [6] | G2/M (%) [6] | S-Phase (%) [6] | Early Apoptotic (%) ([13]; HeLa, 24 hours) | Late Apoptotic (%) ([13]; HeLa, 24 hours) | Live (%) ([13]; HeLa, 24 hours) | Necrotic (%) ([13]; HeLa, 24 hours) | other results |
| --- | --- | --- | --- | --- | --- | --- | --- | --- | --- | --- | --- | --- | --- | --- |
| CC(C)(C)OC(=O)n1ccc2c[c]([Au-][P+](C3CCCCC3)(C3CCCCC3)C3CCCCC3)ccc21 [Compound 4, 5-{Tricyclohexylphosphine aurate(I)}-tert-butyl1H-indole-1-carboxylate] | increase in the number of γH2AX foci | 34.4 | 22.8 | 16.2 | induce early stage apoptosis | more intense PI staining | 60.3+/−3.2% and 60.3 +/− 0.8% | 11.4 +/− 4.9% | 28.3 +/− 1.3% | 5.3% and 5.3 +/− 1.1% | 8.1% and 8.1 +/− 1.8% | 68.4 +/− 0.8% | 18.8 +/− 2.5% | γH2AX foci 4 hours after IR exposure [1]: a significant number of γH2AX foci persist; % Inhibition GSK3α [7]: 5.8%; % Inhibition MARK2 [8]: 26.2%; % Inhibition IGF1R [9]: 4.7%; % Inhibition FLT3 [10]: 0%; % Inhibition LYN [11]: 0%; % Inhibition FYN [12]: 1.2%; fold higher amount of late-stage apoptotic cells compared to compound 3 ([13]; HeLa): 2 fold; fold higher amount of necrosis compared to compound 3 ([13]; HeLa): ~9 fold |
| CC(C)(C)OC(=O)n1ccc2c[c]([Au-][P+](c3ccccc3)(c3ccccc3)c3ccccc3)ccc21 [Compound 3, 5-{Triphenylphosphine aurate(I)}-tert-butyl1H-indole-1-carboxylate] | lower numbers of γH2AX foci | 16.2 | 11.5 | 2.5 | induce early stage apoptosis | significant PI uptake is not observed | 45.4 +/− 2.1% | 13.0 +/− 2.1% | 41.6 +/− 0.1% | 8.8% and 8.8 +/− 0.7% | 4.3% and 4.3 +/− 1.8% | 84.4 +/− 3.0% | 2.4 +/− 0.8% | change in free -SH on L-cysteine [14]: does not change the titer of free —SH; also recorded: does not cause a change in the amount of free —SH; alterations in cell-cycle progression ([6]; over a 24 hour period): does not cause any significant alterations in cell-cycle progression; fold increase in early stage apoptosis compared to DMSO ([13]; 24 hours): 6 fold; fold increase in late stage apoptosis compared to DMSO ([13]; 24 hours): ~10 fold |
